Assay results reported in ChEMBL document CHEMBL1201862, “PubChem BioAssay data set” (2004).
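The compound was tested at five concentrations on cells cultured in 96-well plates, with a 48-hour exposure period. GI50 = concentration required for 50% inhibition of growth.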 Calls of active or inactive are those of the source. No stated cut-off is given here; in the data, active = GI50 up to about 1.1 µM and inactive = higher.

Tests used:
Assay in all cases: NCI anticancer screen, dose series, 48 h
[1] = tested on: DU-145
[2] = tested on: EKVX
[3] = tested on: LOX IMVI
[4] = tested on: M14
[5] = tested on: MCF7
[6] = tested on: MDA-MB-231
[7] = tested on: MDA-N
[8] = tested on: NCI/ADR-RES
[9] = tested on: OVCAR-5
[10] = tested on: OVCAR-8
[11] = tested on: PC-3
[12] = tested on: SF-539
[13] = tested on: SK-MEL-5
[14] = tested on: SN12C
[15] = tested on: A498
[16] = tested on: DMS-114
[17] = tested on: M19-MEL
[18] = tested on: XF498
[19] = tested on: DMS-273
[20] = tested on: SNB-78

Measured: GI50

COc1ccc2c(c1)CCN=C2Cc1cc(OC)c(OC)cc1CCCl
inactive: [1] > 100 µM | [2] > 100 µM | [3] 31.9 µM | [4] 21.2 µM | [5] 52.2 µM | [6] 32.1 µM | [7] 53.8 µM | [8] > 100 µM | [9] 17.3 µM | [10] > 100 µM | [11] 48 µM | [12] 16.2 µM | [13] 17.5 µM | [14] 48.4 µM

Clc1cc2c(c(CSC3=NCN(CC4CC4)CN3)c1)OCOC2
inactive: [15] 20.7 µM | [1] 26.1 µM | [2] 20 µM | [3] 25.1 µM | [4] 13.8 µM | [5] 20.8 µM | [6] 19.5 µM | [7] 16.3 µM | [8] 20.6 µM | [9] 21 µM | [10] 26.9 µM | [11] 23 µM | [12] 20.3 µM | [13] 17.7 µM | [14] 28.6 µM

CCOC(=O)CC(=O)CSc1c(-c2ccccc2)c(=O)n(-c2ccccc2)c(=S)n1-c1ccccc1
inactive: [15] > 100 µM | [1] > 100 µM | [2] > 100 µM | [3] > 100 µM | [4] > 100 µM | [5] > 100 µM | [6] > 100 µM | [7] > 100 µM | [8] > 100 µM | [9] > 100 µM | [10] > 100 µM | [11] > 100 µM | [12] > 100 µM | [14] > 100 µM

N#CC1(C#N)C(=O)c2ccncc2C1=O
inactive: [15] > 100 µM | [1] > 100 µM | [2] > 100 µM | [4] > 100 µM | [5] > 100 µM | [6] > 100 µM | [7] > 100 µM | [8] 63.7 µM | [9] > 100 µM | [10] > 100 µM | [11] > 100 µM | [12] > 100 µM | [13] > 100 µM | [14] > 100 µM

O=C1C(Cl)N(c2cccc(Cl)c2)C1c1c[nH]c2ccccc12 (stereo not given)
inactive: [16] > 100 µM | [2] > 100 µM | [4] > 100 µM | [17] > 100 µM | [10] > 100 µM | [12] > 100 µM | [13] > 100 µM | [14] > 100 µM | [18] > 100 µM

COc1cc(/C=C/C(=O)C(C)(C)C)cc(OC)c1OC
inactive: [16] 25.6 µM | [19] 40.1 µM | [2] 45.7 µM | [3] 19.7 µM | [4] 33.3 µM | [17] 31.8 µM | [9] > 100 µM | [10] 33.4 µM | [12] 33.3 µM | [13] 42.3 µM | [14] 34.3 µM | [18] 82 µM

Cc1ccc(Nc2n[nH]c(NS(=O)(=O)c3cc(C(=O)Nc4ccc(Cl)cc4)c(Cl)cc3S)n2)cc1
inactive: [1] > 100 µM | [2] 35 µM | [3] 48.4 µM | [4] > 100 µM | [5] > 100 µM | [6] > 100 µM | [7] > 100 µM | [8] > 100 µM | [9] > 100 µM | [10] > 100 µM | [11] > 100 µM | [12] > 100 µM | [13] > 100 µM | [14] > 100 µM

C=C(C)[C@@H]1CCC2=C[C@H](CC(C)=CC3=CC(C)=C(O3)[C@@H]1OC)OC2=O
inactive: [15] 53.6 µM | [1] > 100 µM | [2] 59.2 µM | [4] 41.5 µM | [5] 38.8 µM | [6] 29.5 µM | [7] > 100 µM | [8] 90.4 µM | [9] > 100 µM | [10] 40.7 µM | [11] 83.8 µM | [12] 77.3 µM | [13] > 100 µM | [14] > 100 µM

C[C@]12CCC(=O)C(O)=C1CC[C@@H]1[C@@H]2CC[C@]2(C)C(=O)CC[C@@H]12 [FORMESTANE]
inactive: [15] > 84.5 µM | [16] > 100 µM | [1] > 100 µM | [2] > 88.9 µM | [3] > 100 µM | [4] > 100 µM | [5] > 100 µM | [6] > 100 µM | [7] > 100 µM | [8] > 100 µM | [9] > 100 µM | [10] > 100 µM | [11] > 100 µM | [12] > 100 µM | [13] > 93.5 µM | [14] > 100 µM | [20] > 100 µM | [18] 88.1 µM

CC(=O)OCC1OC(OCCCCCCO)C(OC(C)=O)C(OC(C)=O)C1OC(C)=O (stereo not given)
inactive: [15] > 100 µM | [2] > 100 µM | [3] > 100 µM | [4] > 100 µM | [5] > 100 µM | [6] > 100 µM | [7] > 100 µM | [8] > 100 µM | [9] > 100 µM | [10] > 100 µM | [11] > 100 µM | [12] > 100 µM | [14] > 100 µM

CN1NC(c2ccccc2)=C(C#N)C(=O)CC1c1ccc(Br)cc1 (stereo not given)
inactive: [15] 40.4 µM | [3] 35.4 µM | [4] 20.9 µM | [9] 25.5 µM | [13] 14.2 µM | [14] 44.9 µM | [20] 48.8 µM | [18] 28.6 µM
